System: HBV replication in HepG2/2.2.15 cells
Assay: Antiviral efficiency of synthetic gRNA/Cas9 RNPs in HepG2/2.2.15 cells (HBsAg/HBeAg ELISA, HBV mRNA and HBV DNA real-time PCR)
Type: cell-based, Hepatitis B virus (HBV)
Parameters: reduction in HBsAg expression / reduction of HBV mRNA expression: concentration or dose not given beside the values
Conditions: for reduction of HBV mRNA expression: HepG2/2.2.15 cells, real-time PCR, vs gRNAc
Method: The HepG2.2.15 Human Hepatoblastoma cell line (Cat #SCC249, MilliporeSigma, Burlington, MA) is a traditional HBV cellular model that is widely used for studying HBV infection and drug development. HepG2.2.15 cells display constitutive HBV RNA transcription and DNA replication, but a lesser detection of cccDNA by Southern blot and PCR detection. The HepG2/2.2.15 cells were cultured in DMEM (Cat #MT10013CV, Fisher Scientific, Waltham, MA) supplemented with 10% Fetal bovine serum, penicillin, and streptomycin (50 ug/ml each; Fisher Scientific) and maintained at 37° C. and 5% CO2 atmosphere. The Amaxa Cell Line Nucleofector Kit V (Lonza VCA-1003) was used to deliver gRNA/Cas9 into HepG2/2.2.15 cells stably expressing HBV. For each transfection, 160 μM gRNA and 160 μM tracrRNA were first incubated at 37° C. for 30 minutes, followed by adding 80 μM Cas9 protein and incubating at 37° C. for 15 minutes. Approximately 40 μM of the gRNA/Cas9 complex was transfected into HepG2/2.2.15 cells (5×10^5) following the manufacturer's instructions. After 72 hours, the culture supernatants were harvested to measure HBV antigens by ELISA, and the cell pellets were used to determine HBV DNA or mRNA levels by real-time-PCR.
The levels of HBsAg and HBeAg in the supernatants of cell cultures were determined by ELISA (Cat #KA0286 and NBP2-600029, Novus Biologicals, Littleton, CO) according to the manufacturer's protocol. The optical density of antigen levels was measured at 450 nm using a microplate spectrophotometer. The samples were run in triplicate, and the experiments were repeated at least three times.
Total RNA was extracted from the cell pellets by the RNeasy Mini kit (Cat #74104, QIAGEN, Germantown, MD), and 1 μg RNA was converted to cDNA using the Applied Biosystems High-Capacity cDNA Reverse Transcription Kit (Cat #43-688-14, ThermoFisher, Waltham, MA). Quantitative real-time PCR (real-time-qPCR) was performed using iTaq Universal SYBR Green Supermix (Cat #1725124, Bio-Rad, Hercules, CA). The PCR primers were: HBV mRNA forward, 5′-[…]-3′ (SEQ ID NO: 52), reverse, 5′-[…]-3′ (SEQ ID NO: 53); HBV pgRNA forward 5′-[…]-3′ (SEQ ID NO: 54), reverse 5′-[…]-3′ (SEQ ID NO: 55); and GAPDH forward 5′-[…]-3′ (SEQ ID NO: 56), reverse 5′-[…]-3′ (SEQ ID NO: 57). The gene expression levels were determined by the […] method and values were normalized to GAPDH expression as an internal control.
Total and protein-free HBV DNAs were extracted from whole cell lysate using the Hirt DNA method according to a previously published protocol. For HBV cccDNA analysis, the protein-free DNA was treated with 10 units of T5 exonuclease (NEB) at 37° C. for 30 min, followed by 95° C. for 5 min, and diluted 4-fold with nuclease-free water. Next, the cccDNA was cleaned with a DNA clean and concentrator kit (ZYMO Research, Irvine, CA) and used for PCR. HBV total DNA and cccDNA were analyzed by real-time PCR using a TaqMan PCR assay. The primers and probe used to amplify HBV total DNA were: HBV total DNA forward: 5′-[…]-3′ (SEQ ID NO: 58), reverse 5′-[…]-3′ (SEQ ID NO: 59), and internal probe: 5′-FAM-[…]-TAMRA-3′ (SEQ ID NO: 60). The primers and probe used to amplify HBV cccDNA (Genotype D, subtype ayw) were: forward: 5′-[…]-3′ (SEQ ID NO: 61), reverse 5′-[…]-3′ (SEQ ID NO: 62), and internal probe 5′-FAM-[…]-TAMRA-3′ (SEQ ID NO: 63). The PCR reactions were performed in 20 μl volumes and contained 2 μl DNA. The PCR conditions were: 95° C. for 10 min, followed by 45 cycles of 95° C. for 15 s and 64° C. for 30 s. The DNA levels were determined by the […] method and values were normalized to the control group.
Because the hepatoma cell line HepG2/2.2.15 is a traditional HBV cellular model used to test the efficacy and cytotoxicity of anti-HBV drugs, the synthetic gRNA/Cas9 RNPs were tested for their antiviral efficiency in HepG2/2.2.15 cells. […]

Sequence | reduction in HBsAg expression (HepG2/2.2.15 supernatant, 3 days after nucleofection, ELISA, vs scrambled gRNAc) [%] | reduction of HBV mRNA expression
GAAGCGAAGTGCACACGGTCNGG (guide GAAGCGAAGUGCACACGGUCNGG; complexed with Cas9 as ribonucleoprotein, chemistry not given here) [gRNA8, tested as synthetic gRNA/Cas9 RNP] | 50 | –
GATTGAGACCTTCGTCTGCGNGG (guide GAUUGAGACCUUCGUCUGCGNGG; complexed with Cas9 as ribonucleoprotein, chemistry not given here) [gRNA1, tested as synthetic gRNA/Cas9 RNP] | – | ~ 50%
GTCGCAGAAGATCTCAATCTNGG (guide GUCGCAGAAGAUCUCAAUCUNGG; complexed with Cas9 as ribonucleoprotein, chemistry not given here) [gRNA3, tested as synthetic gRNA/Cas9 RNP] | – | ~ 50%

From US20260191793A1, “HBV SPECIFIC EXOSOMES AND USES THEREOF” (priority 2022, published 2026)
